What was measured:
Format in all cases: cell-based
HS 578T = test: NCI60 five-dose screen; details: Homo sapiens, Breast Cancer
Method: (§1) Since all new conjugates (3a–h) had notable antiproliferative activities on several tumor cell lines in the course of the one-dose screening, they were subjected to a five-dose test. […] J. Mol. Sci. 2025, 26, 11063 10 of 10 S.3. NCI60 Screening A detailed description of the NCI screening procedures can also be found on the website of NCI [39], and in our previous work. S.3.1. One-Dose Screen All candidates were examined at first at a single high dose (10 μM) in the full NCI60 cell panel. The value reported for the one-dose test is growth relative to the no-drug control and relative to the time zero number of cells. This made possible the disclosure of both growth inhibition (numbers between 0 and 100) and lethality (numbers less than 0). For example, a value of 100 means no growth inhibition. A value of 20 would mean 80% growth inhibition. A value of 0 means no net growth over the course of the analysis. A value of −20 would mean 20% lethality. A value of −100 means all cells are dead. S.3.2. […] The human tumor cell lines of the cancer screening panel were grown in RPMI 1640 medium containing 5% fetal bovine serum and 2 mM l-glutamine. Characteristically, cells were injected in 96-well microtiter plates in 0.1 mL at plating densities ranging from 5000 to 40,000 cells/well, depending on the doubling time of individual cell lines. After cell inoculation, the microtiter plates were incubated at 37 °C, 5% carbon dioxide, 95% air, and 100% relative humidity for 24 hours before the addition of tested compounds. After 24 hours, 2 plates of each cell line were fixed in situ with Cl3COOH (TCA), to represent a measurement of the cell population for each cell line at the time of drug addition (tz). Tested compounds were solubilized in DMSO at 400-fold the desired final maximum test concentration and stored frozen before application. In the course of the drug addition, an aliquot of frozen concentrate was thawed and diluted to twice the desired final maximum test concentration with a complete medium containing 50 μg mL−1 gentamicin. Additional four, 10-fold or ½ log serial dilutions were produced to furnish a total of five drug concentrations plus control. Aliquots of 0.1 mL of these different drug dilutions were added to the appropriate microtiter wells already containing 0.1 mL of medium, resulting in the required final drug concentrations. Following drug addition, the plates were incubated at 37 °C, 5% carbon dioxide, 95% air, and 100% relative humidity for an additional 48 hours. For adherent cells, the test was finished by the addition of cold Cl3COOH. Cells were fixed in situ by the addition of 50 μL of cold 50% (w/v) Cl3COOH, and incubated at 4 °C for 1 hour. The supernatant was discarded, and the plates were washed with H2O (5×) and dried in air. Sulforhodamine B (SRB) solution (0.1 mL) at 0.4% (w/v) in 1% CH3COOH was added to each well, and plates were incubated at RT for 10 min. After staining, the unbound dye was removed by washing five times with 1% CH3COOH, and the plates were dried in the air. The bound stain is afterward solubilized with a 10 mM trizma base, and the absorbance is read on an automated plate reader at λ = 515 nm. Utilizing the seven absorbance measurements [time zero (tz), control growth (c), and test growth in the presence of the drug at the five concentration levels (ti)], the percentage growth was determined at each of the drug concentration levels. Growth inhibition (%) was calculated as: [(ti − tz)/(c − tz)] × 100, for concentrations where ti ≥ tz (1) [(ti − tz)/(tz)] × 100, for concentrations where ti < tz. (2) Three dose‒response parameters were calculated as follows. GI50 (growth inhibition of 50%) was determined from Equation (3), which is the drug concentration resulting in a 50% reduction in the net protein increase (as measured by SRB staining) in control cells in the course of the drug incubation. [(ti − tz)/(c − tz)] × 100 = 50 (3)

U251 = test: NCI60 five-dose screen; details: Homo sapiens, U-251; U251, CNS Cancer
Method: as §1

RXF 393 = test: NCI60 five-dose screen; details: Homo sapiens; RXF 393, Renal Cancer
Method: as §1

NCI-H322M = test: NCI60 five-dose screen; details: Homo sapiens, Non-small-Cell Lung Cancer
Method: as §1

CCRF-CEM = test: NCI60 five-dose screen; details: Homo sapiens, Leukemia
Method: as §1

SF-268 = test: NCI60 five-dose screen; details: Homo sapiens; SF-268, CNS Cancer
Method: as §1

COLO 205 = test: NCI60 five-dose screen; details: Homo sapiens; COLO 205, Colon Cancer
Method: as §1

MDA-MB231ATCC = test: NCI60 five-dose screen; details: Homo sapiens, MDA-MB-231, Breast Cancer
Method: as §1

SK-MEL-2 = test: NCI60 five-dose screen; details: Homo sapiens; SK-MEL-2, Melanoma
Method: as §1

A549/ATCC = test: NCI60 five-dose screen; details: Homo sapiens, Non-small-Cell Lung Cancer
Method: as §1

HOP-92 = test: NCI60 five-dose screen; details: Homo sapiens; HOP-92, Non-small-Cell Lung Cancer
Method: as §1

MCF7 = test: NCI60 five-dose screen; details: Homo sapiens; MCF7, Breast Cancer
Method: as §1

T-47D = test: NCI60 five-dose screen; details: Homo sapiens, T47D, Breast Cancer
Method: as §1

[1] = tested on: Non-small-Cell Lung Cancer panel; test: NCI60 five-dose screen, panel mean; details: Homo sapiens; mean over Non-small-Cell Lung Cancer panel
Method: as §1

Renal Cancer panel = test: NCI60 five-dose screen, panel mean; details: Homo sapiens; mean over Renal Cancer panel
Method: as §1

Breast Cancer panel = test: NCI60 five-dose screen, panel mean; details: Homo sapiens; mean over Breast Cancer panel
Method: as §1

CNS Cancer panel = test: NCI60 five-dose screen, panel mean; details: Homo sapiens; mean over CNS Cancer panel
Method: as §1

Colon Cancer panel = test: NCI60 five-dose screen, panel mean; details: Homo sapiens; mean over Colon Cancer panel
Method: as §1

Ovarian Cancer panel = test: NCI60 five-dose screen, panel mean; details: Homo sapiens; mean over Ovarian Cancer panel
Method: as §1

Leukemia panel = test: NCI60 five-dose screen, panel mean; details: Homo sapiens; mean over Leukemia panel
Method: as §1

Melanoma panel = test: NCI60 five-dose screen, panel mean; details: Homo sapiens; mean over Melanoma panel
Method: as §1

Prostate Cancer panel = test: NCI60 five-dose screen, panel mean; details: Homo sapiens; mean over Prostate Cancer panel
Method: as §1

SMILES | GI50 (HS 578T) [nM] | GI50 (U251) [nM] | GI50 (NCI-H322M) [nM] | GI50 (CCRF-CEM) [nM] | GI50 (SF-268) [nM] | GI50 (COLO 205) [nM] | GI50 (MDA-MB231ATCC) [nM] | GI50 (SK-MEL-2) [nM] | GI50 (A549/ATCC) [nM] | GI50 (HOP-92) [nM] | GI50 (MCF7) [nM] | GI50 (T-47D) [nM] | GI50 [1] [nM] | GI50 (Renal Cancer panel) [nM] | GI50 (Breast Cancer panel) [nM] | GI50 (CNS Cancer panel) [nM] | GI50 (Colon Cancer panel) [nM] | GI50 (Ovarian Cancer panel) [nM] | GI50 (Leukemia panel) [nM] | GI50 (Melanoma panel) [nM] | other results
O=c1cc(-c2ccccc2)oc2cc(OCCCC[P+](c3ccccc3)(c3ccccc3)c3ccccc3)cc(O)c12 [3a] | 306 | 315 | 976 | 335 | 380 | 1020 | 240 | 238 | 908 | 234 | 291 | 228 | 460 | 530 | 240 | 300 | 620 | 890 | 260 | 300 | GI50 (RXF 393): 225 nM; GI50 (Prostate Cancer panel): 410 nM
Cc1ccc([P+](CCCCOc2cc(O)c3c(=O)cc(-c4ccccc4)oc3c2)(c2ccc(C)cc2)c2ccc(C)cc2)cc1 [3b] | 366 | 279 | 532 | 324 | 285 | 419 | 320 | 246 | 393 | 163 | 268 | 105 | 310 | 310 | 250 | 300 | 390 | 480 | 220 | 320 | GI50 (RXF 393): 333 nM; GI50 (Prostate Cancer panel): 200 nM
COc1ccc([P+](CCCCOc2cc(O)c3c(=O)cc(-c4ccccc4)oc3c2)(c2ccc(OC)cc2)c2ccc(OC)cc2)cc1 [3c] | 332 | 276 | 1420 | 367 | 351 | 455 | 315 | 301 | 600 | 252 | 407 | 302 | 590 | 1030 | 330 | 460 | 640 | 760 | 340 | 350 | GI50 (RXF 393): 257 nM; GI50 (Prostate Cancer panel): 370 nM
O=c1cc(-c2ccccc2)oc2cc(OCCCC[P+](c3ccc(F)cc3)(c3ccc(F)cc3)c3ccc(F)cc3)cc(O)c12 [3d] | 1980 | 1670 | 1990 | 2310 | 1570 | 1620 | 1910 | 1730 | 3210 | 1320 | 1620 | 1450 | 1970 | 2100 | 1610 | 1670 | 1690 | 3900 | 1710 | 1740 | GI50 (RXF 393): 1820 nM; GI50 (Prostate Cancer panel): 1740 nM
O=c1cc(-c2ccccc2)oc2cc(OCCCC[P+](C3CCCCC3)(C3CCCCC3)C3CCCCC3)cc(O)c12 [3e] | 838 | 287 | 1580 | 477 | 1040 | 812 | 366 | 1320 | 1330 | 211 | 956 | 397 | 1070 | 1300 | 590 | 750 | 940 | 1950 | 420 | 550 | GI50 (RXF 393): 461 nM; GI50 (Prostate Cancer panel): 870 nM
COc1c(C)cc([P+](CCCCOc2cc(O)c3c(=O)cc(-c4ccccc4)oc3c2)(c2cc(C)c(OC)c(C)c2)c2cc(C)c(OC)c(C)c2)cc1C [3f] | 361 | 67 | 432 | 103 | 525 | 791 | 258 | 292 | 314 | 165 | 260 | 121 | 290 | 320 | 220 | 280 | 410 | 510 | 120 | 310 | GI50 (RXF 393): 191 nM; GI50 (Prostate Cancer panel): 310 nM
Cc1ccccc1[P+](CCCCOc1cc(O)c2c(=O)cc(-c3ccccc3)oc2c1)(c1ccccc1C)c1ccccc1C [3g] | 232 | 225 | 1380 | 242 | 279 | 351 | 337 | 194 | 417 | 255 | 267 | 208 | 450 | 580 | 250 | 330 | 580 | 820 | 210 | 270 | GI50 (Prostate Cancer panel): 340 nM
O=c1cc(-c2ccccc2)oc2cc(OCCCC[P+](c3ccccc3)(c3ccccc3)c3ccccn3)cc(O)c12 [3h] | 1130 | 335 | 2040 | 334 | 760 | 1640 | 906 | 758 | 1130 | 346 | 396 | 259 | 1070 | 1350 | 530 | 770 | 1070 | 1890 | 260 | 520 | GI50 (RXF 393): 608 nM; GI50 (Prostate Cancer panel): 900 nM

— paper PMC12652692, “Synthesis and In Vitro Anticancer Evaluation of Novel Phosphonium Derivatives of Chrysin” (International Journal of Molecular Sciences, 2025)
